Measured values taken from BigSolDB 2.1.

Cc1nc2n(c(=O)c1CCN1CCC(c3noc4cc(F)ccc34)CC1)CCCC2
solubility (mole fraction)
Settings | 278.15 K | 283.15 K | 288.15 K | 293.15 K | 298.15 K | 303.15 K | 308.15 K | 313.15 K
in acetone | 0.000769 | 0.00111 | 0.00135 | 0.00166 | 0.00208 | 0.00251 | 0.00309 | 0.0039
in ethanol | 0.000876 | 0.00107 | 0.00133 | 0.00156 | 0.00209 | 0.00259 | 0.00333 | 0.00427
in ethyl acetate | 0.00113 | 0.00144 | 0.00165 | 0.00207 | 0.00248 | 0.00297 | 0.00373 | 0.00464
in isobutyl acetate | 0.000791 | 0.00106 | 0.00129 | 0.0015 | 0.00183 | 0.00226 | 0.00266 | 0.0033
in isopropanol | 0.00047 | 0.0006 | 0.000714 | 0.000853 | 0.00111 | 0.00134 | 0.00193 | 0.00271
in isopropyl acetate | 0.000742 | 0.000884 | 0.00102 | 0.00125 | 0.0015 | 0.00186 | 0.00225 | 0.0027
in methanol | 0.00204 | 0.00226 | 0.00273 | 0.00331 | 0.00407 | 0.00506 | 0.00623 | 0.00787
in methyl acetate | 0.00124 | 0.00153 | 0.0018 | 0.00219 | 0.00264 | 0.00329 | 0.00397 | 0.00489
in n-butanol | 0.00144 | 0.00183 | 0.00225 | 0.00291 | 0.00368 | 0.00479 | 0.00621 | 0.00792
in n-butyl acetate | 0.00112 | 0.00129 | 0.00159 | 0.00189 | 0.00241 | 0.00282 | 0.00341 | 0.00386
in n-propanol | 0.00111 | 0.00149 | 0.00199 | 0.00248 | 0.0031 | 0.00409 | 0.00532 | 0.00683
in n-propyl acetate | 0.00116 | 0.00147 | 0.00166 | 0.00202 | 0.00242 | 0.00288 | 0.00357 | 0.00424
in sec-butanol | 0.00187 | 0.00244 | 0.00286 | 0.00361 | 0.00464 | 0.00604 | 0.00769 | 0.00987
